Assay results: patent US10167293B2, “[8-(phenylsulfonyl)-3,8-diazabicyclo[3.2.1]oct-3-yl](1H-1,2,3-triazol-4-yl)methanones” (BAYER PHARMA AKTIENGESELLSCHAFT, priority 2016, dated 2019)

Each compound was assayed against recombinant human AKR1C3 (Homo sapiens (Human), UniProt P42330) (assay: AKR1C3-inhibitory activity assay (Coumberone to Coumberol fluorescence)). Conditions: recombinant human AKR1C3, 15 min pre-incubation, 10 μM NADPH, 0.3 μM Coumberone.
Chain of recombinant human AKR1C3 (P42330 whole entry): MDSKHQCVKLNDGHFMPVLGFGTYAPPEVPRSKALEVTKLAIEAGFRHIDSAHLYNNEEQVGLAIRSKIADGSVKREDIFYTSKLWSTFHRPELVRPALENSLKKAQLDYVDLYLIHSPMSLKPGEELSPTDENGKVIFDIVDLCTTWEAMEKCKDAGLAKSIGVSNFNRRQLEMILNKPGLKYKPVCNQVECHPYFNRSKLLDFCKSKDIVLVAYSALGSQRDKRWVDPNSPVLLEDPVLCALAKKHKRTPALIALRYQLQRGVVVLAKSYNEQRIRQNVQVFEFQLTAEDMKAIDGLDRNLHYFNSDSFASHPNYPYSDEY
Type: biochemical
Protocol: The AKR1C3-inhibitory activity of the substances of the present invention was measured in the AKR1C3 assay described in the paragraphs below.
Essentially, the enzyme activity is measured by quantification of the generation of Coumberol from Coumberone (Halim et al. J. AM. CHEM. SOC. 2008, 130:14123-14128 and Yee et al. Proc. Natl. Acad. Sci. USA 2006, 103:13304-13309). In this test, the increase of the highly fluorescent Coumberol by NADPH—(nicotinamide adenine dinucleotide phosphate)-dependent reduction of the non-fluorescent Coumberone by AKR1C3 was determined.
The enzyme used was recombinant human AKR1C3 (Aldo-keto reductase family 1 member C3; GenBank Accession No. NM_003739). This was expressed in E. coli as GST (glutathione S transferase) fusion protein and purified by glutathione Sepharose affinity chromatography. The GST was removed by digestion with thrombin and subsequent size exclusion chromatography (Dufort, I., Rheault, P., Huang, X F., Soucy, P., and Luu-The, V., Endocrinology 140, 568-574 (1999)).
For the assay, 50 nl of a 100-fold concentrated solution of the test substance in DMSO were pipetted into a black low-volume 384-well microtiter plate (Greiner Bio-One, Frickenhausen, Germany), 2.5 μl of a solution of AKR1C3 in assay buffer [50 mM potassium phosphate buffer pH 7, 1 mM DTT, 0.0022% (w/v) Pluronic F-127, 0.01% BSA (w/v) and protease inhibitor cocktail (Complete, EDTA-free Protease Inhibitor Cocktail from Roche)] were added and the mixture was incubated for 15 min to allow pre-binding of the substances to the enzyme prior to the enzyme reaction. The enzyme reaction was then started by addition of 2.5 μl of a solution of NADPH (20 μM→final concentration in 5 μl of assay volume is 10 μM) and Coumberone (0.6 μM→final concentration in 5 μl of assay volume is 0.3 μM) in assay buffer, and the resulting mixture was incubated at 22° C. for the reaction time of typically 90 min. The concentration of the AKR1C3 and the reaction time was adapted to the respective activity of the enzyme preparation and adjusted such that the assay was carried out in the linear range. Typical AKR1C3 concentrations were in the region of 1 nM. The reaction was stopped by addition of 2.5 μl of a stop solution consisting of 3 μM EM-1404 as inhibitor (U.S. Pat. No. 6,541,463) in 50 mM HEPES pH7.5 (3 μM EM-1404→final concentration in 7.5 μl of assay volume is 1 μM). The fluorescence of the Coumberole was then measured at 520 nm (excitation at 380 nm) using a suitable measuring instrument (Pherastar from BMG Labtechnologies). The intensity of the fluorescence was used as a measure of the amount of Coumberole formed and thus of the enzyme activity of AKR1C3. The data were normalized (enzyme reaction without inhibitor=0% inhibition; all other assay components, but no enzyme=100% inhibition).
In the case of `O=C(c1cnn[nH]1)N1CC2CCC(C1)N2S(=O)(=O)c1ccc(C(F)(F)F)cc1` [Example 36, 1H-1,2,3-triazol-5-yl[8-{[4-(trifluoromethyl)phenyl]sulfonyl}-3,8-diazabicyclo[3.2.1]oct-3-yl]methanone], the IC50 is reported as 3.3 nM. `O=C(c1c[nH]nn1)N1CC2CCC(C1)N2S(=O)(=O)c1cc(F)ccc1F` [Example 12, {8-[(2,5-difluorophenyl)sulfonyl]-3,8-diazabicyclo[3.2.1]oct-3-yl}(1H-1,2,3-triazol-4-yl)methanone] gave an IC50 of 1.1 nM. `O=C(c1cnn[nH]1)N1CC2CCC(C1)N2S(=O)(=O)c1ccc(F)c(F)c1F` [Example 59, 1H-1,2,3-triazol-5-yl{8-[(2,3,4-trifluorophenyl)sulfonyl]-3,8-diazabicyclo[3.2.1]oct-3-yl}methanone] was tested, and the IC50 was 2.2 nM. `COc1ccc(C#N)cc1S(=O)(=O)N1C2CCC1CN(C(=O)c1cnn[nH]1)C2` [Example 73, 4-methoxy-3-{[3-(1H-1,2,3-triazol-5-ylcarbonyl)-3,8-diazabicyclo[3.2.1]oct-8-yl]sulfonyl}benzonitrile] showed an IC50 of 28 nM. `O=C(c1cnn[nH]1)N1CC2CCC(C1)N2S(=O)(=O)c1c(F)cccc1F` [Example 24, {8-[(2,6-difluorophenyl)sulfonyl]-3,8-diazabicyclo[3.2.1]oct-3-yl}(1H-1,2,3-triazol-5-yl)methanone] showed an IC50 of 1.8 nM. Compound `O=C(c1cnn[nH]1)N1CC2CCC(C1)N2S(=O)(=O)c1ccc2nsnc2c1` [Example 58, [8-(2,1,3-benzothiadiazol-5-ylsulfonyl)-3,8-diazabicyclo[3.2.1]oct-3-yl](1H-1,2,3-triazol-5-yl)methanone] has an IC50 of 1.2 nM. `O=C(c1cnn[nH]1)N1CC2CCC(C1)N2S(=O)(=O)c1ccccc1[N+](=O)[O-]` [Example 46, {8-[(2-nitrophenyl)sulfonyl]-3,8-diazabicyclo[3.2.1]oct-3-yl}(1H-1,2,3-triazol-5-yl)methanone] gave an IC50 of 0.9 nM. For `Cc1cccc(Cl)c1S(=O)(=O)N1C2CCC1CN(C(=O)c1cnn[nH]1)C2` [Example 51, {8-[(2-chloro-6-methylphenyl)sulfonyl]-3,8-diazabicyclo[3.2.1]oct-3-yl}(1H-1,2,3-triazol-5-yl)methanone], the IC50 was 0.8 nM. Work on `Cc1ccc(Br)cc1S(=O)(=O)N1C2CCC1CN(C(=O)c1cnn[nH]1)C2` [Example 65, {8-[(5-bromo-2-methylphenyl)sulfonyl]-3,8-diazabicyclo[3.2.1]oct-3-yl}(1H-1,2,3-triazol-5-yl)methanone] yielded an IC50 of 0.5 nM. Work on `O=C(c1cnn[nH]1)N1CC2CCC(C1)N2S(=O)(=O)c1cc(F)c(F)cc1F` [Example 62, 1H-1,2,3-triazol-5-yl{8-[(2,4,5-trifluorophenyl)sulfonyl]-3,8-diazabicyclo[3.2.1]oct-3-yl}methanone] yielded an IC50 of 2.8 nM. Compound `Cc1cc(C)cc(S(=O)(=O)N2C3CCC2CN(C(=O)c2cnn[nH]2)C3)c1` [Example 18, {8-[(3,5-dimethylphenyl)sulfonyl]-3,8-diazabicyclo[3.2.1]oct-3-yl}(1H-1,2,3-triazol-5-yl)methanone] has an IC50 of 1 nM. `COc1cc(F)ccc1S(=O)(=O)N1C2CCC1CN(C(=O)c1cnn[nH]1)C2` [Example 72, {8-[(4-fluoro-2-methoxyphenyl)sulfonyl]-3,8-diazabicyclo[3.2.1]oct-3-yl}(1H-1,2,3-triazol-5-yl)methanone] was tested, and the IC50 was 1.1 nM. In the case of `O=C(c1cnn[nH]1)N1CC2CCC(C1)N2S(=O)(=O)c1ccc(F)c(F)c1` [Example 23, {8-[(3,4-difluorophenyl)sulfonyl]-3,8-diazabicyclo[3.2.1]oct-3-yl}(1H-1,2,3-triazol-5-yl)methanone], the IC50 is reported as 2.2 nM. For `O=C(c1cnn[nH]1)N1CC2CCC(C1)N2S(=O)(=O)c1cccc2cccnc12` [Example 40, [8-(quinolin-8-ylsulfonyl)-3,8-diazabicyclo[3.2.1]oct-3-yl](1H-1,2,3-triazol-5-yl)methanone], the IC50 was 3.4 nM. `O=C(c1cnn[nH]1)N1CC2CCC(C1)N2S(=O)(=O)c1ccc(Br)cc1` [Example 38, {8-[(4-bromophenyl)sulfonyl]-3,8-diazabicyclo[3.2.1]oct-3-yl}(1H-1,2,3-triazol-5-yl)methanone] was tested, and the IC50 was 1.5 nM. Work on `O=C(c1cnn[nH]1)N1CC2CCC(C1)N2S(=O)(=O)c1cccc(Cl)c1` [Example 5, {8-[(3-chlorophenyl)sulfonyl]-3,8-diazabicyclo[3.2.1]oct-3-yl}(1H-1,2,3-triazol-4-yl)methanone] yielded an IC50 of 1.2 nM. `N#Cc1ccc(Cl)c(S(=O)(=O)N2C3CCC2CN(C(=O)c2cnn[nH]2)C3)c1` [Example 74, 4-chloro-3-{[3-(1H-1,2,3-triazol-5-ylcarbonyl)-3,8-diazabicyclo[3.2.1]oct-8-yl]sulfonyl}benzonitrile] was tested, and the IC50 was 5.5 nM. Compound `O=C(c1cnn[nH]1)N1CC2CCC(C1)N2S(=O)(=O)c1ccccc1F` [Example 15, {8-[(2-fluorophenyl)sulfonyl]-3,8-diazabicyclo[3.2.1]oct-3-yl}(1H-1,2,3-triazol-5-yl)methanone] has an IC50 of 1.5 nM. In the case of `O=C(c1cnn[nH]1)N1CC2CCC(C1)N2S(=O)(=O)c1cc(F)ccc1Cl` [Example 70, {8-[(2-chloro-5-fluorophenyl)sulfonyl]-3,8-diazabicyclo[3.2.1]oct-3-yl}(1H-1,2,3-triazol-5-yl)methanone], the IC50 is reported as 0.5 nM. For `O=C(c1cnn[nH]1)N1CC2CC[C@@H](C1)N2S(=O)(=O)c1cccc(Cl)c1Cl` [Example 53, {(1S)-8-[(2,3-dichlorophenyl)sulfonyl]-3,8-diazabicyclo[3.2.1]oct-3-yl}(1H-1,2,3-triazol-5-yl)methanone], the IC50 was 0.8 nM. Work on `O=C(c1cnn[nH]1)N1CC2CCC(C1)N2S(=O)(=O)c1ccc(F)c(Cl)c1` [Example 28, {8-[(3-chloro-4-fluorophenyl)sulfonyl]-3,8-diazabicyclo[3.2.1]oct-3-yl}(1H-1,2,3-triazol-5-yl)methanone] yielded an IC50 of 1.2 nM. In the case of `Cc1ccccc1S(=O)(=O)N1C2CCC1CN(C(=O)c1cnn[nH]1)C2` [Example 6, {8-[(2-methylphenyl)sulfonyl]-3,8-diazabicyclo[3.2.1]oct-3-yl}(1H-1,2,3-triazol-4-yl)methanone], the IC50 is reported as 1.7 nM. `O=C(c1cnn[nH]1)N1CC2CCC(C1)N2S(=O)(=O)c1cccc(Br)c1` [Example 31, {8-[(3-bromophenyl)sulfonyl]-3,8-diazabicyclo[3.2.1]oct-3-yl}(1H-1,2,3-triazol-5-yl)methanone] was tested, and the IC50 was 0.5 nM. `O=C(c1cnn[nH]1)N1CC2CCC(C1)N2S(=O)(=O)c1cccc2ccccc12` [Example 39, [8-(naphthalen-1-ylsulfonyl)-3,8-diazabicyclo[3.2.1]oct-3-yl](1H-1,2,3-triazol-5-yl)methanone] showed an IC50 of 1.3 nM. In the case of `O=C(c1cnn[nH]1)N1CC2CCC(C1)N2S(=O)(=O)c1cccc(F)c1` [Example 4, {8-[(3-fluorophenyl)sulfonyl]-3,8-diazabicyclo[3.2.1]oct-3-yl}(1H-1,2,3-triazol-5-yl)methanone], the IC50 is reported as 1.2 nM. In the case of `O=C(c1cnn[nH]1)N1CC2CCC(C1)N2S(=O)(=O)c1cccc2c1OCC2` [Example 69, [8-(2,3-dihydro-1-benzofuran-7-ylsulfonyl)-3,8-diazabicyclo[3.2.1]oct-3-yl](1H-1,2,3-triazol-5-yl)methanone], the IC50 is reported as 0.6 nM. `O=C(c1cnn[nH]1)N1CC2CCC(C1)N2S(=O)(=O)c1ccc2c(c1)OCO2` [Example 66, [8-(1,3-benzodioxol-5-ylsulfonyl)-3,8-diazabicyclo[3.2.1]oct-3-yl](1H-1,2,3-triazol-5-yl)methanone] was tested, and the IC50 was 0.9 nM. Work on `O=C(c1cnn[nH]1)N1CC2CCC(C1)N2S(=O)(=O)c1ccc(Cl)cc1` [Example 22, {8-[(4-chlorophenyl)sulfonyl]-3,8-diazabicyclo[3.2.1]oct-3-yl}(1H-1,2,3-triazol-5-yl)methanone] yielded an IC50 of 1.5 nM.
